Measurements: patent US20240376123A1, “KRAS G12D INHIBITORS AND USES THEREOF” (SUZHOU ZANRONG PHARMA LIMITED, priority 2021, published 2024)

How the values were obtained:
[1] = system: p-ERK in PNAC-1/HPAC cell; assay: Phospho-ERK 1/2 assay (Table 1); type: cell-based; details: Homo sapiens; PNAC-1/HPAC cell, 3 hours compound incubation; read-out: p-ERK IC50
Method in brief: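 Pancreatic cancer cells (PNAC-1/HPAC) treated with compound 3 hours at 37° C, 0.5% DMSO final, then fixed and methanol-permeabilized. In-cell western: rabbit anti-pERK with mouse anti-GAPDH overnight at 4° C, IR-dye secondaries, imaged at 700 and 800 nm.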

Panc-1 p-ERK = assay: Phospho-ERK 1/2 assay, Panc-1 (Table 2); type: cell-based; details: Homo sapiens; Panc-1 cells
Description: (§1) Allow PNAC-1/HPAC cell growth in a T75 flask in DMEM and 10% 1 fetal calf serum (FCS; Gibco), using standard tissue culture procedures until ˜80% confluency is achieved. Day 1, seed 6000 cells/well in 384 well plate and incubate at 37° C., 5% CO2. Add diluted compound by Echo 550, final DMSO is 0.5%, incubate cells at 37° C., 5% CO2 for 3 hours. Then, remove medium and fix cells with 3.7% formaldehyde in PBS (PFA) by Apricot. Wash with PBS once. Permeabilize cells with cold 100% methanol and repeat wash once with PBS once. Add Li-Cor blocking buffer to each well and incubate 1.5 hours at RT. Remove blocking buffer and add primary antibody mixture (rabbit anti pERK, mouse anti GAPDH). Incubate at 4° C. overnight. Day 2, wash with PBST (Tween-20 in PBS) with total 3 times and then add secondary antibody mixture (goat anti rabbit 800CW (1:800 dilution in the combined solution) and goat anti mouse 680RD (1:800 dilution in the combined solution)), incubate for 60 minutes at RT away from light. Repeat washing with PBST 3 times. After final wash, centrifuge plate up-side-down at 1000 rpm to remove wash solution completely from wells. Before plate scanning, clean the bottom plate surface and the Odyssey* Imager scanning bed (if applicable) with moist, lint-free tissue to avoid any obstructions during scanning. Scan plate with detection in both 700 and 800 nm channels.
(§2) Table 2 describes the p-ERK IC50 values and selectivity over WT-KRAS cell line MKN-1 of the exemplary compounds of the present disclosure and reference compound MRTX-1133.

WT-KRAS cell line MKN-1 = assay: Phospho-ERK 1/2 assay, WT-KRAS cell line MKN-1 (Table 2); type: cell-based
Description: as §1, §2

[2] = system: HPAC (ATCC CRL-2119) cells; assay: KRAS G12D 3D CellTiter-Glo proliferation assay, HPAC; type: cell-based; details: Homo sapiens, 168 h, 3D proliferation, 7 days, CellTiter-Glo 3D
Description: (§3) HPAC (ATCC CRL-2119) and AsPC-1 (ATCC CRL-1682) cells were purchased from ATCC, and each cell was cultured in medium supplemented with 10% fetal bovine serum (FBS), according to the protocol recommended by the manufacture. Serially diluted compound was added to 384-well Ultra-Low Attachment Surface round bottom plate (Corning). 400 cells/well were seeded in plate and incubated at 37° C., 5% CO2 for 7 days. Cell viability was measured using a CellTiter-Glo® 3D Cell Viability Assay kit (Promega) according to the manufacturer's protocol.
(§4) The 2D and 3D proliferation data of the exemplary compounds of the present disclosure in different cell lines are shown in Table 3.

[3] = system: AsPC-1 (ATCC CRL-1682) cells; assay: KRAS G12D 3D CellTiter-Glo proliferation assay, AsPC-1; type: cell-based; details: Homo sapiens, ASPC1, 168 h; 3D proliferation, 7 days, CellTiter-Glo 3D
Description: as §3, §4

[4] = system: AsPC-1 (ATCC CRL-1682) cells; assay: KRAS G12D 2D CellTiter-Glo proliferation assay, AsPC-1; type: cell-based; details: Homo sapiens, ASPC1, 2D proliferation, 72 hours
Description: (§5) AsPC-1 (ATCC CRL-1682) and LS513 (ATCC CRL-2134) cells were purchased from ATCC, GP2D (Cobioer CBP60010) cells was purchased from Cobioer biosciences CO., LTD, and each cell was cultured in medium supplemented with 10% fetal bovine serum (FBS), according to the protocol recommended by the manufacture. Cells were seeded 800 cells/well in 384-well plates (Corning) and incubated at 37° C., 5% CO2 for 18 hours. Serially diluted compound was added to the cells, and plates were incubated at 37° C., 5% CO2 for 72 hours. Cell viability was measured using a CellTiter-Glo® Luminescent Cell Viability Assay kit (Promega) according to the manufacturer's protocol.
as §4

[5] = system: GP2D (Cobioer CBP60010) cells; assay: KRAS G12D 2D CellTiter-Glo proliferation assay, GP2D; type: cell-based; details: 2D proliferation, 72 hours
Description: as §5, §4

[6] = system: LS513 (ATCC CRL-2134) cells; assay: KRAS G12D 2D CellTiter-Glo proliferation assay, LS513; type: cell-based; details: Homo sapiens, LS-513, 2D proliferation, 72 hours
Description: as §5, §4

[7] = In vivo oral bioavailability assay; details: Balb/c mice female, IV bolus 1 mg/kg and oral gavage 30 mg/kg, single dose
Description: Single dose following IV bolus (1 mg/kg, 0.2 mg/mL in 1% DMSO, 99% SBE-β-CD (10% w/v) in water) and oral gavage (30 mg/kg, 3 mg/mL in 1% MC in DI water) administration of test compound in Balb/c Mice female. The blood samples were collected at 2 min, 5 min, 10 min, 30 min, 1 hr, 2 hr, 4 hr, 8 hr and 24 hr (additional 32 hr and 48 hr for MRTX1133) after IV bolus, at 15 min, 30 min, 1 hr, 1.5 hr, 2 hr, 3 hr, 4 hr, 8 hr and 24 hr (additional 32 hr and 48 hr for MRTX1133) after PO administration. The plasma concentrations of compounds were determined with UPLC-MS/MS.

C#Cc1cccc2cccc(-c3nc4c5c(nc(OC[C@@]67CCCN6C[C@H](F)C7)nc5c3F)N3C[C@H]5CC[C@H](N5)[C@H]3CO4)c12 [Compound 25, (5aS,6S,9R)-2-(8-ethynylnaphthalen-1-yl)-1-fluoro-12-(((2R,7aS)-2-fluorotetrahydro-1H-pyrrolizin-7a(5H)-yl)methoxy)-5a,6,7,8,9,10-hexahydro-5H-4-oxa-3,10a,11,13,14-pentaaza-6,9-methanonaphtho[1,8-ab]heptalene]
IC50 [1]: 10 nM | IC50 (Panc-1 p-ERK): 10 nM | IC50 (WT-KRAS cell line MKN-1; Homo sapiens, WT-KRAS cell line MKN-1, p-ERK): 754 nM | Selectivity Fold (WT-KRAS cell line MKN-1; selectivity over WT-KRAS cell line MKN-1 vs Panc-1 p-ERK): 75 Fold | IC50 [2]: 76 nM | IC50 [3]: 54 nM | IC50 [4]: 516 nM | IC50 [5]: 23 nM | IC50 [6]: 80 nM | Bioavailability (%) [7]: 39.2% | Fa*Fg (%) [7]: 56.6%
